Among the test systems are PC-3 prostate; NCI-H522 lung; MDA-MB-231 breast; IGROV1 ovarian; MALME-3M melanoma; EKVX NSCLC; HS 578T breast; UO-31 renal; CAKI-1 renal; HOP-92 NSCLC.
What all share (test): NCI anticancer screen, dose series, 48 h

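Grown in 96-well plates, cells were treated for 48 hours with each compound at five concentrations. Insufficient inhibition: endpoint recorded as highest concentration tested. GI50 marks 50% less growth. TGI: concentration producing complete growth inhibition.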

As for `CC(C)=CCc1c2c(c3occ(-c4ccc(O)c(O)c4)c(=O)c3c1O)C=CC(C)(C)O2`, the TGI in the test with PC-3 prostate is 3.45 µM; in the test on NCI-H522 lung, 0.458 µM; with MDA-MB-231 breast, 2.97 µM; in the test with IGROV1 ovarian, 6 µM; with MALME-3M melanoma, 2.53 µM; in the test with EKVX NSCLC, 17.3 µM. Further, the TGI was 3.73 µM in the test on HS 578T breast, 2.9 µM in the test with UO-31 renal, 3.02 µM with CAKI-1 renal and 5 µM with HOP-92 NSCLC.
For the compound `COc1ccc(/C(=N/O)c2ccccc2-c2nc3ccccc3c(=O)n2-c2ccc(S(=O)(=O)Nc3ncccn3)cc2)cc1C`, the TGI with PC-3 prostate is more than 31.6 µM; with NCI-H522 lung, 23.7 µM; in the test on MDA-MB-231 breast, more than 31.6 µM; with IGROV1 ovarian it was more than 31.6 µM; in the test with EKVX NSCLC it was more than 31.6 µM; with HS 578T breast, more than 100 µM. The TGI in the test on UO-31 renal was more than 31.6 µM; with CAKI-1 renal it was more than 31.6 µM; in the test on HOP-92 NSCLC it was 30.4 µM.
Regarding `C=C(Cl)/C(=C\Cl)CCC(Br)C(C)C` (stereo not given), the TGI in the test on PC-3 prostate was more than 100 µM; with NCI-H522 lung it was 39.9 µM; in the test on MDA-MB-231 breast, 45.4 µM; in the test on IGROV1 ovarian it was more than 100 µM; with EKVX NSCLC, more than 100 µM; in the test with HS 578T breast it was more than 100 µM. For the same compound, the TGI with UO-31 renal, with CAKI-1 renal and with HOP-92 NSCLC was more than 100 µM throughout.
In the case of `C1CCSCCCCSCCCCSCCCCSC1`, the TGI in the test with PC-3 prostate, with NCI-H522 lung, in the test on MDA-MB-231 breast, with IGROV1 ovarian, in the test on EKVX NSCLC and in the test with HS 578T breast was more than 100 µM in each case. Moreover, the TGI in the test with UO-31 renal, in the test with CAKI-1 renal and in the test on HOP-92 NSCLC was more than 100 µM each time.
`C[n+]1c(-c2ccccc2)cc2/c(=C\c3ccc([N+](=O)[O-])cc3)c3ccccc3n21`: the TGI turned out to be 21.1 µM in the test on PC-3 prostate; 2.8 µM in the test on NCI-H522 lung; 16.1 µM with MDA-MB-231 breast; 9.53 µM with IGROV1 ovarian; 44.2 µM with EKVX NSCLC; 4.04 µM in the test on HS 578T breast. The TGI with UO-31 renal was 35.5 µM; in the test on CAKI-1 renal, more than 100 µM; in the test on HOP-92 NSCLC it was more than 41.6 µM.
On to `CC(C)(C)N=c1n(C(C)(C)C)oc(=O)n1C(C)(C)C`, for which the TGI in the test on PC-3 prostate, in the test on MDA-MB-231 breast, in the test with IGROV1 ovarian, in the test with MALME-3M melanoma, with EKVX NSCLC and in the test on HS 578T breast was more than 100 µM in each case. Also, the TGI with UO-31 renal, with CAKI-1 renal and with HOP-92 NSCLC was more than 100 µM each time.
As for `CCCCn1c2c(n(CCCC)c1=S)-c1c(n(CCCC)c(=S)n1CCCC)S[Se][Se]S2`, the TGI in the test with PC-3 prostate is more than 34.2 µM; with NCI-H522 lung, 0.479 µM; with MDA-MB-231 breast, 7.59 µM; in the test with IGROV1 ovarian it was 9.16 µM; in the test with MALME-3M melanoma it was 5.09 µM; with EKVX NSCLC, 24.3 µM. Besides, the values for the TGI in the test on HS 578T breast, in the test with UO-31 renal and with HOP-92 NSCLC were 44.2 µM, 9.02 µM and 9.51 µM, respectively.
For `CC(=O)OC[C@]1(C(=O)C(O)c2ccoc2)[C@H](C)CC[C@@]23COC(=O)C2=CCC[C@@H]31` (stereo not given in full), the TGI in the test with PC-3 prostate, with NCI-H522 lung, in the test with MDA-MB-231 breast, with IGROV1 ovarian, with EKVX NSCLC and with HS 578T breast was more than 10 µM in each case. Moreover, the TGI with UO-31 renal, in the test with CAKI-1 renal and in the test with HOP-92 NSCLC was more than 10 µM throughout.
Turning to `COc1cccc(-c2cc(=O)c3c(C)cc(C)nc3[nH]2)c1`, the TGI was more than 100 µM with PC-3 prostate; 11.5 µM in the test with NCI-H522 lung; more than 100 µM in the test on MDA-MB-231 breast; more than 67.4 µM with IGROV1 ovarian; more than 100 µM in the test on MALME-3M melanoma; more than 100 µM in the test on EKVX NSCLC. The TGI was more than 100 µM in the test with HS 578T breast, more than 100 µM in the test on UO-31 renal and more than 85 µM with HOP-92 NSCLC.
For the compound `COc1cc2c(cc1OC)C1c3ccccc3CCN1CC2` (stereo not given), the TGI in the test with PC-3 prostate, in the test on NCI-H522 lung, in the test on MDA-MB-231 breast, in the test with IGROV1 ovarian, in the test on MALME-3M melanoma and in the test with EKVX NSCLC was more than 100 µM in each case. Also, the TGI in the test on HS 578T breast, in the test with CAKI-1 renal and with HOP-92 NSCLC was more than 100 µM in each case.
Regarding `CC1(C)C(c2ccccc2)=[N+]([O-])C(C)(C)N1O`, the TGI in the test on PC-3 prostate, with NCI-H522 lung, in the test with MDA-MB-231 breast, in the test on IGROV1 ovarian, in the test with MALME-3M melanoma and in the test on EKVX NSCLC was more than 10 µM each time. The TGI in the test with HS 578T breast, with CAKI-1 renal and in the test on HOP-92 NSCLC was more than 10 µM each time.
As for `CCCCN1CCN(c2ccc3nc(-c4ccc5nc(-c6ccc(C(F)(F)F)cc6)[nH]c5c4)[nH]c3c2)CC1`, the GI50 was 962 nM in the test with PC-3 prostate; 1780 nM in the test with NCI-H522 lung; 1470 nM in the test on MDA-MB-231 breast; 1570 nM with EKVX NSCLC; 1820 nM in the test with HS 578T breast; 1750 nM with UO-31 renal. In addition, the GI50 is 1380 nM in the test on CAKI-1 renal and 1190 nM in the test with HOP-92 NSCLC. Besides, the TGI stood at 2.31 µM with PC-3 prostate; 3.49 µM in the test on NCI-H522 lung; 2.94 µM in the test on MDA-MB-231 breast; 3.07 µM in the test on EKVX NSCLC; 3.73 µM in the test on HS 578T breast; 3.24 µM with UO-31 renal. Besides, the TGI with CAKI-1 renal was determined as 2.69 µM; in the test on HOP-92 NSCLC it was 2.64 µM.
Consider `CC(C)(C)NC(=O)[C@H]1CC[C@H]2[C@@H]3CC=C4NC(=O)CC[C@]4(C)[C@H]3CC[C@]12C`, for which the TGI with PC-3 prostate, with NCI-H522 lung, in the test with MDA-MB-231 breast, with IGROV1 ovarian, in the test on MALME-3M melanoma and in the test with EKVX NSCLC was more than 100 µM in each case. Also, the TGI with HS 578T breast, in the test with UO-31 renal and with HOP-92 NSCLC was more than 100 µM in each case.
